This is an account of results in patent US20260069571A1, “DDR1 AND DDR2 INHIBITORS FOR THE TREATEMENT OF CANCER AND FIBROTIC DISEASES” (REDX PHARMA PLC, priority 2021, published 2026).

The structures appear in SMILES notation.

The target of one assay is Recombinant human DDR1 (Homo sapiens (Human), UniProt Q08345). The assay can be described thus: LanthaScreen Eu Kinase Binding Assay, DDR1. Conditions: DDR1 2.5 nM (aa440-876, GST tag), Kinase Tracer 178 5 nM; for IC50: read-out: DDR1 pIC50 (converted). Here is the method: (§1) DDR1 and DDR2 Biochemical Assay Method
Sequence of Recombinant human DDR1 (Q08345 other isoform, or with tags, fused parts or gaps): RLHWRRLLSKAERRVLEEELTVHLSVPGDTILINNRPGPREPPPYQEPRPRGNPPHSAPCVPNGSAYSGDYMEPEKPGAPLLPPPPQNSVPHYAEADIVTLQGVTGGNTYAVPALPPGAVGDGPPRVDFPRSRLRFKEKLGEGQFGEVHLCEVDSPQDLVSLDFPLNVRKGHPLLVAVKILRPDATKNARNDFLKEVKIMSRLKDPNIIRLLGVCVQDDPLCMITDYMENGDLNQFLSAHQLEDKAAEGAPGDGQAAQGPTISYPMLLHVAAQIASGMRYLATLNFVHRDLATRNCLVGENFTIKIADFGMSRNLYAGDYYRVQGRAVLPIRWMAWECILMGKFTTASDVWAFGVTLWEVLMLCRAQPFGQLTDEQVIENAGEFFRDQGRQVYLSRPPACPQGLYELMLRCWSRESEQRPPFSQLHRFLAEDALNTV
(§2) The capacity of compounds to bind to DDR1 and DDR2 was quantified using a LanthaScreen Eu Kinase Binding Assay. Recombinant human DDR1 (2.5 nM; aa440-876 containing a GST tag) and DDR2 (1.75 nM; aa427-855 containing a GST tag) were diluted in assay buffer (50 mM HEPES pH7.3, 10 mM MgCl2, 1 mM EGTA and 0.01% Tween) with various concentrations of compound in a 384-well plate and a volume of 5 uL. After a 30-minute incubation at room temperature, 2.5 uL of Eu-anti GST antibody (diluted to 1 nM in assay buffer) plus Kinase Tracer 178 (diluted in assay buffer to 5 nM for DDR1 and 10 nM for DDR2) were added to the plate. Following 60-minute incubation at room temperature, time-resolved fluorescence was measured on a BMG Labtech PHERAstar plate reader. DMSO (1%) and reference compound (1 μM) were used to generate the Max and Min assay signals, respectively. Data was analysed using a four-parameter logistic model to calculate IC50 values, with at least two independent replicates were performed for each compound.
A general note: In TR-FRET formats the signal depends on donor and acceptor labels being close together.

The target in another assay is Recombinant human DDR2 (Homo sapiens (Human), UniProt Q16832). The experiment in a line: LanthaScreen Eu Kinase Binding Assay, DDR2. As to conditions: DDR2 1.75 nM (aa427-855, GST tag), Kinase Tracer 178 10 nM; for IC50: read-out: DDR2 pIC50 (converted). Here is the method:
as §1, §2

Sequence of Recombinant human DDR2 (Q16832 427-855): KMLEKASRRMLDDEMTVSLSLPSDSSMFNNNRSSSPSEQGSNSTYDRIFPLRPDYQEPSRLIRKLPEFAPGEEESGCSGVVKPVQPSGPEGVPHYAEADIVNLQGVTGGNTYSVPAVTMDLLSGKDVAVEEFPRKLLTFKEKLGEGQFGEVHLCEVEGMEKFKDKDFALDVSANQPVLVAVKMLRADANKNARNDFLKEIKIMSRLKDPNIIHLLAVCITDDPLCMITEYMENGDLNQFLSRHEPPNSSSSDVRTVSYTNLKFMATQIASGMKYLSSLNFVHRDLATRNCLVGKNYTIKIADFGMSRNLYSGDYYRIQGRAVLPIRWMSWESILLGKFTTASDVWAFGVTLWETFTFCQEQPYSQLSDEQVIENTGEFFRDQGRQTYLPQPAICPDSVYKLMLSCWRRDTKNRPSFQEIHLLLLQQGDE

Consider `Cn1ncc2cc(Nc3cccc4c3C(=O)N(CC(=O)Nc3cnoc3)C4)ccc21` [Example 4, N-isoxazol-4-yl-2-[7-[(1-methylindazol-5-yl)amino]-1-oxo-isoindolin-2-yl]acetamide], for which the “DDR1 pIC50” value at Recombinant human DDR1 is given as “A (pIC50>8)”. Moreover, the “DDR2 pIC50” value on Recombinant human DDR2 is reported as “A (pIC50>8)”.
In the case of `Cn1ncc2cc(Nc3cccc4c3C(=O)N(CC(=O)Nc3cccc(C(F)(F)F)c3)C4)ccc21` [Example 5, 2-{7-[(1-methyl-1H-indazol-5-yl)amino]-1-oxo-2,3-dihydro-1H-isoindol-2-yl}-N-[3-(trifluoromethyl)phenyl]acetamide], the “DDR1 pIC50” value at Recombinant human DDR1 is listed as “A (pIC50>8)”. Besides, on Recombinant human DDR2, the IC50 was 0.01 to 0.1 µM.
As for `C[C@H](N(C)C(=O)CN1Cc2cccc(Nc3cnc4[nH]ncc4c3)c2C1=O)C(F)(F)F` [Example 77, N-methyl-2-[1-oxo-7-(1H-pyrazolo[3,4-b]pyridin-5-ylamino)isoindolin-2-yl]-N-[(1S)-2,2,2-trifluoro-1-methyl-ethyl]acetamide], the IC50 at Recombinant human DDR1 and at Recombinant human DDR2 was 0.01 to 0.1 µM in each case.
For the compound `Cc1n[nH]c2cc(Nc3cccc4c3C(=O)N(CC(=O)Nc3cc(CN(C)C)cc(C(F)(F)F)c3)C4)ccc12` [Example 39, N-[3-[(dimethylamino)methyl]-5-(trifluoromethyl)phenyl]-2-[7-[(3-methyl-1H-indazol-6-yl)amino]-1-oxo-isoindolin-2-yl]acetamide], at Recombinant human DDR1, the “DDR1 pIC50” value is reported as “A (pIC50>8)”. For the same compound, the IC50 on Recombinant human DDR2 is 0.01 to 0.1 µM.
For `Cc1n[nH]c2cc(N(C)c3cccc4c3C(=O)N(CC(=O)NCC(F)(F)F)C4)ccc12` [Example 78, 2-[7-[methyl-(3-methyl-1H-indazol-6-yl)amino]-1-oxo-isoindolin-2-yl]-N-(2,2,2-trifluoroethyl)acetamide], the results for the IC50 at Recombinant human DDR1 and on Recombinant human DDR2 were 0.01 to 0.1 µM and 0.1 to 1 µM, respectively.
For the compound `Cc1n[nH]c2cc(Nc3cccc4c3C(=O)N(CC(=O)N[C@@H](C)C(F)(F)F)C4)ccc12` [Example 28, 2-[7-[(3-methyl-1H-indazol-6-yl)amino]-1-oxo-isoindolin-2-yl]-N-[(1S)-2,2,2-trifluoro-1-methyl-ethyl]acetamide], the “DDR1 pIC50” value at Recombinant human DDR1 is “A (pIC50>8)”. On Recombinant human DDR2, the “DDR2 pIC50” value was “A (pIC50>8)”.
`Cc1n[nH]c2nc(Nc3cccc4c3C(=O)N(CC(=O)NCC(F)(F)F)C4)ccc12` [Example 61, 2-[7-[(3-methyl-1H-pyrazolo[3,4-b]pyridin-6-yl)amino]-1-oxo-isoindolin-2-yl]-N-(2,2,2-trifluoroethyl)acetamide]: the IC50 on Recombinant human DDR1 is 0.1 to 1 µM. Further, the “DDR2 pIC50” value at Recombinant human DDR2 is on record as “D (pIC50≤6)”.
With `Cc1n[nH]c2cc(Nc3cccc4c3C(=O)N(CC(=O)N3CCO[C@H](C(F)(F)F)C3)C4)ccc12` [Example 48, 7-[(3-methyl-1H-indazol-6-yl)amino]-2-[2-oxo-2-[(2S)-(trifluoromethyl)morpholin-4-yl]ethyl]isoindolin-1-one], the “DDR1 pIC50” value at Recombinant human DDR1 is “A (pIC50>8)”. Moreover, on Recombinant human DDR2, the IC50 is 0.01 to 0.1 µM.
Consider `Cc1n[nH]c2cc(Nc3cccc4c3C(=O)N(CC(=O)N3CCO[C@H](C(F)(F)F)C3)C4)cnc12` [Example 69, 7-[(3-methyl-1H-pyrazolo[4,3-b]pyridin-6-yl)amino]-2-[2-oxo-2-[(2S)-(trifluoromethyl)morpholin-4-yl]ethyl]isoindolin-1-one], for which the IC50 is 0.01 to 0.1 µM at Recombinant human DDR1 and 0.1 to 1 µM on Recombinant human DDR2.
Turning to `Cc1n[nH]c2cc(Nc3cccc4c3C(=O)N(CC(=O)N[C@@H](C)C(F)(F)F)C4)cc(F)c12` [Example 63, 2-[7-[(4-fluoro-3-methyl-1H-indazol-6-yl)amino]-1-oxo-isoindolin-2-yl]-N-[(1S)-2,2,2-trifluoro-1-methyl-ethyl]acetamide], the “DDR1 pIC50” value at Recombinant human DDR1 is “A (pIC50>8)”. Also, the “DDR2 pIC50” value on Recombinant human DDR2 is “A (pIC50>8)”.
Consider `Cc1nn(C)c2ncc(Nc3cccc4c3C(=O)N(CC(=O)N3CCC[C@H]3C(F)(F)F)C4)cc12` [Example 102, 7-[(1,3-dimethylpyrazolo[3,4-b]pyridin-5-yl)amino]-2-[2-oxo-2-[(2S)-(trifluoromethyl)pyrrolidin-1-yl]ethyl]isoindolin-1-one], for which the IC50 on Recombinant human DDR1 was 0.01 to 0.1 µM; at Recombinant human DDR2, 0.1 to 1 µM.
For the compound `O=C(CN1Cc2cccc(Nc3cnc4[nH]ncc4c3)c2C1=O)NCC(F)(F)F` [Example 22, 2-[1-oxo-7-(1H-pyrazolo[3,4-b]pyridin-5-ylamino)isoindolin-2-yl]-N-(2,2,2-trifluoroethyl)acetamide], at Recombinant human DDR1, the IC50 is 0.01 to 0.1 µM. Further, the “DDR2 pIC50” value on Recombinant human DDR2 is “D (pIC50≤6)”.
As to `Cn1ncc2cc(Nc3cccc4c3C(=O)N(CC(=O)N3CCC[C@H]3CF)C4)cnc21` [Example 56, 7-[(1-methylpyrazolo[3,4-b]pyridin-5-yl)amino]-2-[2-oxo-2-[(2S)-(fluoromethyl)pyrrolidin-1-yl]ethyl]isoindolin-1-one], the IC50 at Recombinant human DDR1 and on Recombinant human DDR2 was 0.01 to 0.1 µM each time.
`Cc1n[nH]c2cc(Nc3cccc4c3C(=O)N(CC(=O)N3CCO[C@@H](C(F)(F)F)C3)C4)cnc12` [Example 68, 7-[(3-methyl-1H-pyrazolo[4,3-b]pyridin-6-yl)amino]-2-[2-oxo-2-[(2R)-(trifluoromethyl)morpholin-4-yl]ethyl]isoindolin-1-one]: the IC50 is 0.01 to 0.1 µM at Recombinant human DDR1 and 0.1 to 1 µM at Recombinant human DDR2.
As for `CN(c1ccc2[nH]nc(F)c2c1)c1cccc2c1C(=O)N(CC(=O)N1CCC[C@H]1C(F)(F)F)C2` [Example 92, 7-[(3-fluoro-1H-indazol-5-yl)-methyl-amino]-2-[2-oxo-2-[(2S)-(trifluoromethyl)pyrrolidin-1-yl]ethyl]isoindolin-1-one], the results for the IC50 at Recombinant human DDR1 and at Recombinant human DDR2 were 0.01 to 0.1 µM and 0.1 to 1 µM, respectively.
Taken in the same sequence, the figures for `Cn1ncc2cc(Nc3cccc4c3C(=O)N(CC(=O)N3CC(C(F)(F)F)C3)C4)ccc21` [Example 18, 7-[(1-methylindazol-5-yl)amino]-2-[2-oxo-2-[3-(trifluoromethyl)73zetidine-1-yl]ethyl]isoindolin-1-one] were 0.01 to 0.1 µM and 0.1 to 1 µM.
In the case of `CN(c1ccc2[nH]nc(C#N)c2c1)c1cccc2c1C(=O)N(CC(=O)N1CCC[C@H]1C(F)(F)F)C2` [Example 86, 5-[methyl-[3-oxo-2-[2-oxo-2-[(2S)-(trifluoromethyl)pyrrolidin-1-yl]ethyl]isoindolin-4-yl]amino]-1H-indazole-3-carbonitrile], the IC50 at Recombinant human DDR1 and at Recombinant human DDR2 was 0.01 to 0.1 µM throughout.
`Cc1nn(C)c2ncc(Nc3cccc4c3C(=O)N(CC(=O)NCC(F)(F)F)C4)cc12` [Example 101, 2-[7-[(1,3-dimethylpyrazolo[3,4-b]pyridin-5-yl)amino]-1-oxo-isoindolin-2-yl]-N-(2,2,2-trifluoroethyl)acetamide]: the “DDR1 pIC50” value at Recombinant human DDR1 is “D (pIC50≤6)”. On Recombinant human DDR2, the “DDR2 pIC50” value is “D (pIC50≤6)”.
With `Cn1ncc2cc(Nc3cccc4c3C(=O)N(CC(=O)N3CCO[C@@H](C(F)(F)F)C3)C4)cnc21` [Example 55, 7-[(1-methylpyrazolo[3,4-b]pyridin-5-yl)amino]-2-[2-oxo-2-[(2R)-(trifluoromethyl)morpholin-4-yl]ethyl]isoindolin-1-one], the IC50 at Recombinant human DDR1 and on Recombinant human DDR2 was 0.1 to 1 µM in each case.
On to `Cn1ncc2cc(Nc3cccc4c3C(=O)N(CC(=O)Nc3cncc(C(F)(F)F)c3)C4)cnc21` [Example 99, 2-[7-[(1-methylpyrazolo[3,4-b]pyridin-5-yl)amino]-1-oxo-isoindolin-2-yl]-N-[5-(trifluoromethyl)-3-pyridyl]acetamide], for which the IC50 at Recombinant human DDR1 and on Recombinant human DDR2 was 0.01 to 0.1 µM each time.
